Laboratory results: patent US10201528B2, “Method of treating multiple sclerosis” (Assistance Publique Hopitaux De Paris, priority 2012, dated 2019)
“Also recorded” adds a separate entry of the source.

Tests used:
multiple sclerosis = details: attacks less numerous and less severe, improvement of lesions visible by MRI; cited from earlier work
[1] = system: patients with a progressive form of multiple sclerosis; test: Clinical cases: patients with progressive multiple sclerosis treated with biotin; format: in vivo, human
Procedure: Three patients with a progressive form of multiple sclerosis received biotin. […]
A person, without any particular personal history. […] Treatment with interferon Ib (betaferon) began in February 2008.
Three Solumedrol infusions were carried out in September 2010 and then 4 infusions between 8 and 11 Aug.
Treatment with biotin was then introduced on 6 Mar. 2012 at the dose of 100 mg/day until March 30 and then 200 mg/day from April 6 to 6 May 2012 then 300 mg/day from 6 May 2012 to 7 Jun. 2012. Two complete ophthalmological examinations were carried out during this period of time: a first on 30 Mar. […]

[2] = patient 1, after six months of treatment
[3] = patient 1, biotin 100 mg three times a day, three months

In the case of glatiramer acetate, the “efficacy in multiple sclerosis” value (multiple sclerosis) is given as “proven to be effective”.
In the case of `C[C@H]1C[C@@H]2[C@H]([C@@H](O)C[C@@]3(C)[C@H]2CC[C@]3(O)C(=O)COC(=O)CCC(=O)O)[C@@]2(C)C=CC(=O)C=C12` [Solumedrol], the diplopia-type attack ([1]; patient 2, July 2008, infusions) is reported as “regressive”, the “progressive decrease in visual acuity” value ([1]; patient 2, three infusions September 2010 and 4 infusions 8-11 Aug. 2011, before biotin) is reported as “without any effect” and the “evolvement of left homonymous lateral hemianopsia” value ([1]; patient 3, 2004, after 3 infusions, symptomology subsequently reappeared) is reported as “initially been favourable”.
For `O=C(O)CCCC[C@@H]1SC[C@@H]2NC(=O)N[C@@H]21` [biotin], the “brain MRI spectro: choline peak and choline/creatine ratio” value [1, 2] was “clear decrease”, the “visual evoked potentials: P100 wave on the right” value [1, 2] was “beginnings of a P100 wave on the right” and the “visual evoked potentials: latency of left P100 wave” value ([1]; patient 1, biotin 100 mg three times a day, after six months of treatment) was 111.8 ms. For the same compound, the “MRI and brain MRI spectro” value [1, 3] was “unchanged”, the balance [1, 3] was “more assured” and the “visual evoked potentials: P100 wave on the left” value [1, 3] was “reappearance of a P100 wave on the left”. The “visual evoked potentials: P100 wave on the right” value [1, 3] was “no response was noted on the right”, the “visual evoked potentials: latency of left P100 wave” value [1, 3] was 126.5 ms and the “visual acuity on the left” value ([1]; patient 1, biotin 100 mg three times a day, three months later (before treatment 2/10 on the left)) was 2/10. For the same compound, the “visual acuity on the right” value ([1]; patient 1, biotin 100 mg three times a day, three months later (before treatment could only count fingers on the right)) was 5/10, the “visual evoked potentials: P100 wave” value ([1]; patient 1, biotin increased to 600 mg/day, after nine months of treatment) was “bilateral P100 wave was noted” and the motor problems ([1]; patient 1, discussion) was “corrected and were stabilized”. For the same compound, the “balance between beginning of treatment and last visit” value ([1]; patient 1, long-term treatment) was “also remained stable”, the “visual acuity between beginning of treatment and last visit” value ([1]; patient 1, long-term, 300 mg/day for 15 months then 100 mg/day for 9 months) was “remained stable” and the “visual acuity compared with examination before treatment” value ([1]; patient 2, biotin 100 mg/day from 6 Mar. 2012, examination 30 Mar. 2012) was “no improvement”. The “visual field (automated campimetry): homonymous lateral hemianopsia” value ([1]; patient 3, biotin 100 mg/day begun 12 Apr. 2012, examination 30 Jun. 2012) was “improvement in the visual field in the upper left quadrant; also recorded: clear improvement” and the “time to improvement after introduction of the treatment” value ([1]; the three patients) was “within three months”.
